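Step 1: Grow cells in 96-well plates. Step 2: Expose to compound for 48 hours at 5 concentrations. Step 3: Interpolate endpoints linearly; if unreached, use highest concentration. At the TGI there is no net growth.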
Tests used:
Assay in all cases: NCI tumour cell line growth inhibition, 48 h
TK-10 renal = tested on: TK-10 renal
M14 melanoma = tested on: M14 melanoma
CAKI-1 renal = tested on: CAKI-1 renal
HOP-92 NSCLC = tested on: HOP-92 NSCLC
HOP-62 NSCLC = tested on: HOP-62 NSCLC
A498 renal = tested on: A498 renal
U251 CNS = tested on: U251 CNS
OVCAR-4 ovarian = tested on: OVCAR-4 ovarian
BT-549 breast = tested on: BT-549 breast
MCF7 breast = tested on: MCF7 breast
KM12 colon = tested on: KM12 colon
DU-145 prostate = tested on: DU-145 prostate
HCT-116 colon = tested on: HCT-116 colon
HL-60(TB) leukemia = tested on: HL-60(TB) leukemia
RPMI-8226 leukemia = tested on: RPMI-8226 leukemia
SNB-75 CNS = tested on: SNB-75 CNS
SF-295 CNS = tested on: SF-295 CNS
SNB-19 CNS = tested on: SNB-19 CNS
A549 NSCLC = tested on: A549 NSCLC
OVCAR-5 ovarian = tested on: OVCAR-5 ovarian
SW-620 colon = tested on: SW-620 colon
786-0 renal = tested on: 786-0 renal
PC-3 prostate = tested on: PC-3 prostate
SK-MEL-28 melanoma = tested on: SK-MEL-28 melanoma
MDA-N = tested on: MDA-N
SN12C renal = tested on: SN12C renal
HT29 colon = tested on: HT29 colon
HS 578T breast = tested on: HS 578T breast
UO-31 renal = tested on: UO-31 renal
IGROV1 ovarian = tested on: IGROV1 ovarian
NCI-H226 lung = tested on: NCI-H226 lung
EKVX NSCLC = tested on: EKVX NSCLC
MOLT-4 leukemia = tested on: MOLT-4 leukemia
MDA-MB-231 breast = tested on: MDA-MB-231 breast
NCI-H522 lung = tested on: NCI-H522 lung
SF-539 CNS = tested on: SF-539 CNS
HCT-15 colon = tested on: HCT-15 colon
SR leukemia = tested on: SR leukemia
SK-OV-3 ovarian = tested on: SK-OV-3 ovarian
MALME-3M melanoma = tested on: MALME-3M melanoma
OVCAR-8 ovarian = tested on: OVCAR-8 ovarian
LOX IMVI melanoma = tested on: LOX IMVI melanoma
UACC-257 melanoma = tested on: UACC-257 melanoma
OVCAR-3 ovarian = tested on: OVCAR-3 ovarian
COLO 205 colon = tested on: COLO 205 colon
SF-268 CNS = tested on: SF-268 CNS
T-47D breast = tested on: T-47D breast
SK-MEL-2 melanoma = tested on: SK-MEL-2 melanoma
NCI/ADR-RES ovarian = tested on: NCI/ADR-RES ovarian
SK-MEL-5 melanoma = tested on: SK-MEL-5 melanoma
NCI-H23 lung = tested on: NCI-H23 lung
RXF 393 renal = tested on: RXF 393 renal
MDA-MB-435 = tested on: MDA-MB-435
ACHN renal = tested on: ACHN renal
HCC-2998 colon = tested on: HCC-2998 colon
UACC-62 melanoma = tested on: UACC-62 melanoma
NCI-H460 lung = tested on: NCI-H460 lung
CCRF-CEM leukemia = tested on: CCRF-CEM leukemia
K-562 leukemia = tested on: K-562 leukemia

## CC1OC(Oc2c(-c3cc(O)c(O)c(O)c3)oc3cc(O)cc(O)c3c2=O)C(O)C(O)C1O (stereo not given)
TK-10 renal
  TGI: > 100 µM
M14 melanoma
  TGI: > 100 µM
CAKI-1 renal
  TGI: > 100 µM
HOP-92 NSCLC
  TGI: > 100 µM
HOP-62 NSCLC
  TGI: > 100 µM
A498 renal
  TGI: > 100 µM
U251 CNS
  TGI: > 100 µM
OVCAR-4 ovarian
  TGI: > 100 µM
BT-549 breast
  TGI: > 100 µM
MCF7 breast
  TGI: > 100 µM
KM12 colon
  TGI: > 100 µM
DU-145 prostate
  TGI: > 100 µM
HCT-116 colon
  TGI: > 100 µM
HL-60(TB) leukemia
  TGI: > 100 µM
RPMI-8226 leukemia
  TGI: > 100 µM
SNB-75 CNS
  TGI: > 100 µM
SF-295 CNS
  TGI: > 100 µM
SNB-19 CNS
  TGI: > 100 µM
A549 NSCLC
  TGI: > 100 µM
OVCAR-5 ovarian
  TGI: > 100 µM
SW-620 colon
  TGI: > 100 µM
786-0 renal
  TGI: > 100 µM
PC-3 prostate
  TGI: > 100 µM
SK-MEL-28 melanoma
  TGI: > 100 µM
MDA-N
  TGI: > 100 µM
SN12C renal
  TGI: > 100 µM
HT29 colon
  TGI: > 100 µM
HS 578T breast
  TGI: > 100 µM
UO-31 renal
  TGI: > 100 µM
IGROV1 ovarian
  TGI: > 100 µM
NCI-H226 lung
  TGI: > 100 µM
EKVX NSCLC
  TGI: > 100 µM
MOLT-4 leukemia
  TGI: > 100 µM
MDA-MB-231 breast
  TGI: > 100 µM
NCI-H522 lung
  TGI: > 100 µM
SF-539 CNS
  TGI: > 100 µM
HCT-15 colon
  TGI: > 100 µM
SR leukemia
  TGI: > 100 µM
SK-OV-3 ovarian
  TGI: > 100 µM
MALME-3M melanoma
  TGI: > 100 µM
OVCAR-8 ovarian
  TGI: > 100 µM
LOX IMVI melanoma
  TGI: > 100 µM
UACC-257 melanoma
  TGI: > 100 µM
OVCAR-3 ovarian
  TGI: > 100 µM
COLO 205 colon
  TGI: > 100 µM
SF-268 CNS
  TGI: > 100 µM
T-47D breast
  TGI: > 100 µM
SK-MEL-2 melanoma
  TGI: > 100 µM
NCI/ADR-RES ovarian
  TGI: > 100 µM
SK-MEL-5 melanoma
  TGI: > 100 µM
NCI-H23 lung
  TGI: > 100 µM
RXF 393 renal
  TGI: > 100 µM
MDA-MB-435
  TGI: > 100 µM
ACHN renal
  TGI: > 100 µM
HCC-2998 colon
  TGI: > 100 µM
UACC-62 melanoma
  TGI: > 100 µM

## Cc1cc(=O)[nH]c(S(=O)(=O)NC(=S)Nc2ccc(Cl)cc2)n1
TK-10 renal
  TGI: > 100 µM
M14 melanoma
  TGI: > 100 µM
CAKI-1 renal
  TGI: > 100 µM
HOP-92 NSCLC
  TGI: > 100 µM
HOP-62 NSCLC
  TGI: > 100 µM
A498 renal
  TGI: > 100 µM
U251 CNS
  TGI: > 100 µM
OVCAR-4 ovarian
  TGI: > 100 µM
BT-549 breast
  TGI: > 100 µM
MCF7 breast
  TGI: > 100 µM
KM12 colon
  TGI: > 100 µM
DU-145 prostate
  TGI: > 100 µM
HCT-116 colon
  TGI: > 100 µM
HL-60(TB) leukemia
  TGI: > 100 µM
RPMI-8226 leukemia
  TGI: > 100 µM
SNB-75 CNS
  TGI: > 100 µM
SF-295 CNS
  TGI: > 100 µM
SNB-19 CNS
  TGI: > 100 µM
A549 NSCLC
  TGI: > 100 µM
OVCAR-5 ovarian
  TGI: > 100 µM
SW-620 colon
  TGI: > 100 µM
786-0 renal
  TGI: > 100 µM
PC-3 prostate
  TGI: > 100 µM
SK-MEL-28 melanoma
  TGI: > 100 µM
MDA-N
  TGI: > 100 µM
SN12C renal
  TGI: > 100 µM
HT29 colon
  TGI: > 100 µM
NCI-H460 lung
  TGI: > 100 µM
HS 578T breast
  TGI: > 100 µM
UO-31 renal
  TGI: > 100 µM
IGROV1 ovarian
  TGI: > 100 µM
NCI-H226 lung
  TGI: > 100 µM
EKVX NSCLC
  TGI: > 100 µM
MOLT-4 leukemia
  TGI: > 100 µM
MDA-MB-231 breast
  TGI: > 100 µM
NCI-H522 lung
  TGI: 84.6 µM
SF-539 CNS
  TGI: > 100 µM
HCT-15 colon
  TGI: > 100 µM
SR leukemia
  TGI: > 100 µM
SK-OV-3 ovarian
  TGI: > 100 µM
MALME-3M melanoma
  TGI: > 100 µM
OVCAR-8 ovarian
  TGI: > 100 µM
UACC-257 melanoma
  TGI: > 100 µM
OVCAR-3 ovarian
  TGI: > 100 µM
COLO 205 colon
  TGI: > 100 µM
SF-268 CNS
  TGI: > 100 µM
T-47D breast
  TGI: > 100 µM
SK-MEL-2 melanoma
  TGI: > 100 µM
NCI/ADR-RES ovarian
  TGI: > 100 µM
SK-MEL-5 melanoma
  TGI: > 100 µM
NCI-H23 lung
  TGI: > 100 µM
RXF 393 renal
  TGI: > 100 µM
MDA-MB-435
  TGI: > 100 µM
ACHN renal
  TGI: > 100 µM
HCC-2998 colon
  TGI: > 100 µM
UACC-62 melanoma
  TGI: > 100 µM
CCRF-CEM leukemia
  TGI: > 100 µM

## Cc1ccc(O)c(C2=CC3=NNC(=O)C3C(c3cccc(Br)c3)C2)c1 (stereo not given)
TK-10 renal
  TGI: 41.3 µM
M14 melanoma
  TGI: > 75 µM
CAKI-1 renal
  TGI: > 75 µM
HOP-92 NSCLC
  TGI: > 75 µM
HOP-62 NSCLC
  TGI: > 75 µM
A498 renal
  TGI: > 75 µM
U251 CNS
  TGI: > 75 µM
OVCAR-4 ovarian
  TGI: 37 µM
BT-549 breast
  TGI: 64.1 µM
MCF7 breast
  TGI: 31.7 µM
KM12 colon
  TGI: 39.5 µM
DU-145 prostate
  TGI: > 75 µM
HCT-116 colon
  TGI: > 75 µM
HL-60(TB) leukemia
  TGI: > 75 µM
RPMI-8226 leukemia
  TGI: 72.8 µM
SNB-75 CNS
  TGI: 70 µM
SF-295 CNS
  TGI: 51.6 µM
SNB-19 CNS
  TGI: > 75 µM
A549 NSCLC
  TGI: > 75 µM
OVCAR-5 ovarian
  TGI: 68.5 µM
SW-620 colon
  TGI: > 75 µM
786-0 renal
  TGI: > 75 µM
PC-3 prostate
  TGI: > 75 µM
SK-MEL-28 melanoma
  TGI: > 75 µM
MDA-N
  TGI: > 75 µM
SN12C renal
  TGI: 63.5 µM
HT29 colon
  TGI: > 75 µM
NCI-H460 lung
  TGI: > 75 µM
HS 578T breast
  TGI: > 75 µM
UO-31 renal
  TGI: > 75 µM
IGROV1 ovarian
  TGI: > 75 µM
EKVX NSCLC
  TGI: > 75 µM
MOLT-4 leukemia
  TGI: > 75 µM
MDA-MB-231 breast
  TGI: 59.4 µM
SF-539 CNS
  TGI: > 75 µM
HCT-15 colon
  TGI: > 75 µM
SR leukemia
  TGI: > 75 µM
SK-OV-3 ovarian
  TGI: 63.9 µM
MALME-3M melanoma
  TGI: 71.1 µM
OVCAR-8 ovarian
  TGI: 64.8 µM
LOX IMVI melanoma
  TGI: 27.3 µM
UACC-257 melanoma
  TGI: > 75 µM
OVCAR-3 ovarian
  TGI: 68.7 µM
COLO 205 colon
  TGI: 22.8 µM
SF-268 CNS
  TGI: > 75 µM
T-47D breast
  TGI: > 75 µM
SK-MEL-2 melanoma
  TGI: > 75 µM
NCI/ADR-RES ovarian
  TGI: > 75 µM
SK-MEL-5 melanoma
  TGI: > 75 µM
NCI-H23 lung
  TGI: > 75 µM
RXF 393 renal
  TGI: 28.2 µM
MDA-MB-435
  TGI: > 75 µM
K-562 leukemia
  TGI: > 75 µM
ACHN renal
  TGI: > 75 µM
HCC-2998 colon
  TGI: 31.7 µM
UACC-62 melanoma
  TGI: 70.9 µM
CCRF-CEM leukemia
  TGI: > 75 µM
